Assay: Parallel Artificial Membrane Permeability Assay (PAMPA)
Type: in vitro ADME
Conditions: for Membrane Retention / Papp at 4 h: PAMPA; for Membrane Retention: pH 7.40, 4 hours; for Papp at 4 h: pH 7.4, pH 7.40, room temperature, read-out: PAMPA Pe; for PAMPA category: class from Pe and membrane retention
Description: PAMPA (Parallel Artificial Membrane Permeability Assay) is a first-line permeability screen for drug candidates. This assay mimics the transcellular absorption conditions using an artificial phospholipid membrane and generates a permeability value that can be used for compound ranking and optimization as well as input parameters for in silico models to predict intestinal absorption.
Permeation experiments are carried out in hydrophobic PVDF 96-well microtiter filter plates (MultiScreen Filter Plate, Millipore, #MAIPN4550). Each well is coated with PVDF membrane, which is prepared with 5 µL Dodecane (Sigma, D221104) that contains 1% lecithin (Sigma, P3556-1G).
The typical PAMPA experimental protocol is as follows: The donor plate is placed on a Teflon acceptor plate that has been pre-filled with 150 µL of 100 mM PBS buffer (2.6 g KH2PO4 and 18.5 g K2HPO4.3H2O are dissolved in about 1000 mL of ultra-pure water and mixed thoroughly. The pH is adjusted to 7.40 ± 0.05, using either 1 M sodium hydroxide or 1 M hydrochloric acid.) containing 5% DMSO. The filter on the bottom of each acceptor well is filled with 300 µL of 100 mM PBS buffer (2.6 g KH2PO4 and 18.5 g K2HPO4.3H2O are dissolved in about 1000 mL of ultra-pure water, mixed thoroughly. The pH was adjusted to 7.40 ± 0.05, using either 1 M sodium hydroxide or 1 M hydrochloric acid.). The resulting sandwich is incubated at room temperature under constant shaking (300 rpm) for 4 hours. The sandwich is then disassembled. Before incubation, spike 20 µL dosing solution and mix with 250 µL PBS and 130 µL quench solution (acetonitrile) as T0 sample. After incubation, collect 270 µL solutions from acceptor chamber, followed by the addition of 130 µL acetonitrile. Collect 20 µL solution from donor chamber and add 250 µL PBS and 130 µL acetonitrile. The concentration of compound in all samples are determined by LC-MS/MS and the equations for determining the permeability (Pe, 10^-6 cm/s ) are as follows.
VD is the volume of the donor well; VR is the volume of the acceptor well; Area is the active surface area of membrane; Time is the incubation time (14,400 s in this assay); CR and CD are the concentrations of compound in acceptor and donor solutions, respectively, at the completion of the assay; C0 is the concentration of compound in donor solution before incubation.
The main readout of the PAMPA assay is the permeability value Pe expressed in 10^-6 cm/s. Secondary readouts determined are the amounts of compound in the donor and acceptor compartments as well as compound retention in the membrane. Depending on the permeation rate and the membrane retention, compounds are classified as “low” (Pe < 0.2 and membrane retention <20%) or “medium & high” (Pe >= 0.2; or Pe < 0.2 and membrane retention >= 20%). Each sample is measured in triplicate; the standard deviation is determined for the permeation constant Pe.

| SMILES | Membrane Retention [%] | Papp at 4 h [×10⁻⁶ cm/s] | PAMPA category |
| --- | --- | --- | --- |
| Cc1cc(-c2ccc(N3CCN(Cc4cnc(N5CCNCC5)nc4)CC3)nc2C(C)C)cn(C)c1=O [Example 9, 5-[2-isopropyl-6-[4-[(2-piperazin-1-ylpyrimidin-5-yl)methyl]piperazin-1-yl]-3-pyridyl]-1,3-dimethyl-pyridin-2-one] | 27.230 | 0.78 | medium & high (“medium & high” (Pe >= 0.2; or Pe < 0.2 and membrane retention >= 20%)) |
| Cc1cc(-c2ccc(N3CCN(Cc4cnc(N5CC(C)(N)C5)nc4)CC3)nc2C(C)C)cn(C)c1=O [Example 10, 5-[6-[4-[[2-(3-amino-3-methyl-azetidin-1-yl)pyrimidin-5-yl]methyl]piperazin-1-yl]-2-isopropyl-3-pyridyl]-1,3-dimethyl-pyridin-2-one] | 7.250 | 0.6 | medium & high (“medium & high” (Pe >= 0.2; or Pe < 0.2 and membrane retention >= 20%)) |
| Cc1cc(-c2ccc(N3CCN(Cc4ccc(N5CCNCC5)nc4)CC3)nc2C(C)C)cn(C)c1=O [Example 11, 5-[2-isopropyl-6-[4-[(6-piperazin-1-yl-3-pyridyl)methyl]piperazin-1-yl]-3-pyridyl]-1,3-dimethyl-pyridin-2-one] | 24.900 | 0.6 | medium & high (“medium & high” (Pe >= 0.2; or Pe < 0.2 and membrane retention >= 20%)) |
| Cc1cc(-c2ccc(N3CCN(Cc4ncc(N5CCNCC5)cn4)CC3)nc2C(C)C)cn(C)c1=O [Example 12, 5-[2-isopropyl-6-[4-[(5-piperazin-1-ylpyrimidin-2-yl)methyl]piperazin-1-yl]-3-pyridyl]-1,3-dimethyl-pyridin-2-one] | 15.270 | 0.46 | medium & high (“medium & high” (Pe >= 0.2; or Pe < 0.2 and membrane retention >= 20%)) |
| Cc1cc(-c2ccc(N3CCN(Cc4ccc(N5CCNCC5)cc4)CC3)nc2C(C)C)cn(C)c1=O [Example 13, 5-[2-isopropyl-6-[4-[(4-piperazin-1-ylphenyl)methyl]piperazin-1-yl]-3-pyridyl]-1,3-dimethyl-pyridin-2-one] | 56.550 | 0.46 | medium & high (“medium & high” (Pe >= 0.2; or Pe < 0.2 and membrane retention >= 20%)) |
| Cc1cc(-c2ccc(N3CCN(Cc4cccc(N5CCNCC5)c4)CC3)nc2C(C)C)cn(C)c1=O [Example 14, 5-[2-isopropyl-6-[4-[(3-piperazin-1-ylphenyl)methyl]piperazin-1-yl]-3-pyridyl]-1,3-dimethyl-pyridin-2-one] | 38.020 | 0.54 | medium & high (“medium & high” (Pe >= 0.2; or Pe < 0.2 and membrane retention >= 20%)) |
| Cc1cc(-c2ccc(N3CCN(c4ccc5c(n4)CCNC5)CC3)nc2C(C)C)cn(C)c1=O [Example 15, 5-[2-isopropyl-6-[4-(5,6,7,8-tetrahydro-1,6-naphthyridin-2-yl)piperazin-1-yl]-3-pyridyl]-1,3-dimethyl-pyridin-2-one] | 27.680 | 0.23 | medium & high (“medium & high” (Pe >= 0.2; or Pe < 0.2 and membrane retention >= 20%)) |

More lines, main results first:

| Membrane Retention [%] | Papp at 4 h [×10⁻⁶ cm/s] | SMILES | PAMPA category |
| --- | --- | --- | --- |
| 30.770 | 0.24 | Cc1cc(-c2ccc(N3CCN4CCN(c5ccc(N6CCNCC6)nc5)CC4C3)nc2C(C)C)cn(C)c1=O (stereo not drawn) [Example 16, 5-[2-isopropyl-6-[8-(6-piperazin-1-yl-3-pyridyl)-3,4,6,7,9,9a-hexahydro-1H-pyrazino[1,2-a]pyrazin-2-yl]-3-pyridyl]-1,3-dimethyl-pyridin-2-one] | medium & high (“medium & high” (Pe >= 0.2; or Pe < 0.2 and membrane retention >= 20%)) |
| 50.950 | 1.5 | Cc1cc(-c2ccc(N3CCN(Cc4ccc(N5CCNCC5)cc4)CC3)nc2C(F)F)cn(C)c1=O [Example 17, 5-[2-(difluoromethyl)-6-[4-[(4-piperazin-1-ylphenyl)methyl]piperazin-1-yl]-3-pyridyl]-1,3-dimethyl-pyridin-2-one] | medium & high (“medium & high” (Pe >= 0.2; or Pe < 0.2 and membrane retention >= 20%)) |
| 8.650 | 0.74 | Cc1cc(-c2ccc(N3CCC(N4CCNCC4)CC3)nc2C(C)C)cn(C)c1=O [Example 18, 5-[2-isopropyl-6-(4-piperazin-1-yl-1-piperidyl)-3-pyridyl]-1,3-dimethyl-pyridin-2-one] | medium & high (“medium & high” (Pe >= 0.2; or Pe < 0.2 and membrane retention >= 20%)) |
| 37.320 | 0.87 | CCc1nc(N2CCN3CCN(c4cnc(N5CC6(CNCCO6)C5)nc4)CC3C2)ccc1-c1cc(C)c(=O)n(C)c1 (stereo not drawn) [Example 19, 5-[2-ethyl-6-[2-[2-(5-oxa-2,8-diazaspiro[3.5]nonan-2-yl)pyrimidin-5-yl]-3,4,6,7,9,9a-hexahydro-1H-pyrazino[1,2-a]pyrazin-8-yl]-3-pyridyl]-1,3-dimethyl-pyridin-2-one] | medium & high (“medium & high” (Pe >= 0.2; or Pe < 0.2 and membrane retention >= 20%)) |

Source: patent US20230295109A1, “PYRIDINONE COMPOUNDS FOR THE TREATMENT OF AUTOIMMUNE DISEASE” (F. Hoffmann-La Roche AG, priority 2020, published 2023)
